Measurements as given in patent US20210015098A1, “MOLECULES HAVING PESTICIDAL UTILITY, AND INTERMEDIATES, COMPOSITIONS, AND PROCESSES, RELATED THERETO” (DOW AGROSCIENCES LLC, priority 2018, published 2021).

Legend:
[1] = tested on: Cabbage Looper (Trichoplusia ni, TRIPNI); assay: Bioassays on Cabbage Looper (CL), 128-well diet tray assay; format: in vivo; conditions: Cabbage Looper, Table ABC Biological Results, read-out: CL (rating)
Protocol: (§1) Certain molecules disclosed in this document were tested against BAW and CL using procedures described in the following examples. In the reporting of the results, the “BAW & CL Rating Table” was used (See Table Section).
Bioassays on CL were conducted using a 128-well diet tray assay. One to five second instar CL larvae were placed in each well (3 mL) of the diet tray that had been previously filled with 1 mL of artificial diet to which 50 μg/cm^2 of the test molecule (dissolved in 50 μL of 90:10 acetone-water mixture) had been applied (to each of eight wells) and then allowed to dry. Trays were covered with a clear self-adhesive cover, vented to allow gas exchange, and held at 25° C., 14:10 light-dark for five to seven days. Percent mortality was recorded for the larvae in each well; activity in the eight wells was then averaged. The results are indicated in the table entitled “Table ABC: Biological Results” (See Table Section).

[2] = tested on: Beet Armyworm (Spodoptera exigua, LAPHEG); assay: Bioassays on Beet Armyworm (BAW), 128-well diet tray assay; format: in vivo; conditions: Beet Armyworm, Table ABC Biological Results, read-out: BAW (rating)
Protocol: as §1
Bioassays on BAW were conducted using a 128-well diet tray assay. One to five second instar BAW larvae were placed in each well (3 mL) of the diet tray that had been previously filled with 1 mL of artificial diet to which 50 μg/cm^2 of the test molecule (dissolved in 50 μL of 90:10 acetone-water mixture) had been applied (to each of eight wells) and then allowed to dry. Trays were covered with a clear self-adhesive cover, vented to allow gas exchange, and held at 25° C., 14:10 light-dark for five to seven days. Percent mortality was recorded for the larvae in each well; activity in the eight wells was then averaged. The results are indicated in the table entitled “Table ABC: Biological Results” (See Table Section).

Work on `O=C(CSC(F)(F)F)Nc1c(F)ccc(NC(=O)c2cc(NC(=O)[C@H]3[C@H](c4cc(C(F)(F)F)cc(C(F)(F)F)c4)C3(Cl)Cl)ccc2Cl)c1F` (relative stereo) [F48, trans-5-(3-(3,5-Bis(trifluoromethyl)phenyl)-2,2-dichlorocyclopropane-1-carboxamido)-2-chloro-N-(2,4-difluoro-3-(2-((trifluoromethyl)thio)acetamido)phenyl)benzamide] yielded a pest or weed control at 50 µg/cm2 [1] of 50 to 100% and a pest or weed control at 50 µg/cm2 [2] of 50 to 100%.

`CSC(F)(F)C(=O)Nc1c(F)ccc(NC(=O)c2cc(NC(=O)[C@H]3[C@H](c4ccc(F)c(C(F)(F)F)c4)C3(Cl)Cl)ccc2Cl)c1F` [F1, 2-Chloro-5-((1R,3R)-2,2-dichloro-3-(4-fluoro-3-(trifluoromethyl)phenyl)cyclopropane-1-carboxamido)-N-(3-(2,2-difluoro-2-(methylthio)acetamido)-2,4-difluorophenyl)benzamide] gave a pest or weed control at 50 µg/cm2 [1] of 50 to 100% and a pest or weed control at 50 µg/cm2 [2] of 50 to 100%.

Work on `O=C(CSc1ccncc1)Nc1c(F)ccc(NC(=O)c2cc(NC(=O)[C@H]3[C@H](c4ccc(F)c(C(F)(F)F)c4)C3(Cl)Cl)ccc2Cl)c1F` [F2, 2-Chloro-5-((1R,3R)-2,2-dichloro-3-(4-fluoro-3-(trifluoromethyl)phenyl)cyclopropane-1-carboxamido)-N-(2,4-difluoro-3-(2-(pyridin-4-ylthio)acetamido)phenyl)benzamide] yielded a pest or weed control at 50 µg/cm2 [1] of 50 to 100% and a pest or weed control at 50 µg/cm2 [2] of 50 to 100%.

Work on `O=C(CSc1ccc(F)cc1)Nc1c(F)ccc(NC(=O)c2cc(NC(=O)[C@H]3[C@H](c4ccc(F)c(C(F)(F)F)c4)C3(Cl)Cl)ccc2Cl)c1F` [F4, 2-Chloro-5-((1R,3R)-2,2-dichloro-3-(4-fluoro-3-(trifluoromethyl)phenyl)cyclopropane-1-carboxamido)-N-(2,4-difluoro-3-(2-((4-fluorophenyl)thio)acetamido)phenyl)benzamide] yielded a pest or weed control at 50 µg/cm2 [1] of 50 to 100% and a pest or weed control at 50 µg/cm2 [2] of 50 to 100%.

For `O=C(CSCCC(F)(F)F)Nc1c(F)ccc(NC(=O)c2cc(NC(=O)[C@H]3[C@H](c4ccc(F)c(C(F)(F)F)c4)C3(Cl)Cl)ccc2Cl)c1F` [F5, 2-Chloro-5-((1R,3R)-2,2-dichloro-3-(4-fluoro-3-(trifluoromethyl)phenyl)cyclopropane-1-carboxamido)-N-(2,4-difluoro-3-(2-((3,3,3-trifluoropropyl)thio)acetamido)phenyl)benzamide], the pest or weed control at 50 µg/cm2 [1] was 50 to 100% and the pest or weed control at 50 µg/cm2 [2] was 50 to 100%.

For `O=C(CSCC(F)(F)F)Nc1c(F)ccc(NC(=O)c2cc(NC(=O)[C@H]3[C@H](c4cc(Cl)c(Cl)c(Cl)c4)C3(Cl)Cl)ccc2Cl)c1F` [F6, 2-Chloro-5-((1R,3R)-2,2-dichloro-3-(3,4,5-trichlorophenyl)cyclopropane-1-carboxamido)-N-(2,4-difluoro-3-(2-((2,2,2-trifluoroethyl)thio)acetamido)phenyl)benzamide], the pest or weed control at 50 µg/cm2 [1] was 50 to 100% and the pest or weed control at 50 µg/cm2 [2] was 50 to 100%.

Work on `CC(SC(F)(F)F)C(=O)Nc1c(F)ccc(NC(=O)c2cc(NC(=O)[C@H]3[C@H](c4cc(Cl)c(Cl)c(Cl)c4)C3(Cl)Cl)ccc2Cl)c1F` (stereo partly drawn) [F7, 2-Chloro-5-((1R,3R)-2,2-dichloro-3-(3,4,5-trichlorophenyl)cyclopropane-1-carboxamido)-N-(2,4-difluoro-3-(2-((trifluoromethyl)thio)propanamido)phenyl)benzamide] yielded a pest or weed control at 50 µg/cm2 [1] of 50 to 100% and a pest or weed control at 50 µg/cm2 [2] of 50 to 100%.

For `O=C(CSC(F)(F)F)Nc1c(F)ccc(NC(=O)c2cc(NC(=O)[C@H]3[C@H](c4cc(Cl)c(Cl)c(Cl)c4)C3(Cl)Cl)ccc2Cl)c1F` [F8, 2-Chloro-5-((1R,3R)-2,2-dichloro-3-(3,4,5-trichlorophenyl)cyclopropane-1-carboxamido)-N-(2,4-difluoro-3-(2-((trifluoromethyl)thio)acetamido)phenyl)benzamide], the pest or weed control at 50 µg/cm2 [1] was 50 to 100% and the pest or weed control at 50 µg/cm2 [2] was 50 to 100%.
